Experimental data reported in the METLIN SMRT retention time set (Domingo-Almenara et al. 2019).

Assay: gradient 5% acetonitrile 3 min, to 50% in 2 min, to 85% in 15 min, held 3 min, 100 µL/min
Details: column: Zorbax Extend-C18 2.1 x 50 mm; eluents: water / acetonitrile, 0.1% formic acid
In short: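 Retention time was recorded from adduct peaks, which were picked computationally and each inspected manually. Pure standards ran in mixtures of ~100 molecules on HPLC coupled to a quadrupole time-of-flight mass spectrometer, in positive and negative ionization mode, through a Zorbax Extend-C18 column (2.1 × 50 mm, 1.8 μm) at 100 μL/min. Eluents were water and acetonitrile, each with 0.1% formic acid.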

Row | Compound | RP-LC retention time
1 | COc1ccc(S(=O)(=O)C(CNC(=O)c2ccco2)c2cccs2)cc1 (centres undefined) | 735 s
2 | CC(NS(=O)(=O)c1cc(-c2nc(C(C)(C)C)cs2)cs1)c1ccccc1 (centres undefined) | 1240 s
3 | COc1ccc(-c2noc(C3(NC(=O)COc4ccccc4)CCCCC3)n2)cc1 | 1170 s
4 | Cc1cc2nc(NC3=NCN(CCO)CN3)nc(C)c2cc1C | 597 s
5 | O=C(C1CCC1)N1CCC(c2noc(-c3ccncc3)n2)C1 (centres undefined) | 693 s
6 | COc1ccc(NC(=O)CSc2ccc(N3CCCC(C(=O)NC4CC4)C3)nn2)cc1OC (centres undefined) | 596 s
7 | CCC(C)NC(=O)Cn1nc2c3cc(-c4ccc(Cl)cc4)nn3ccn2c1=O (centres undefined) | 868 s
8 | Cc1ccc(Nc2c(-c3ccc(N(C)C)cc3)nc3ccccn23)cc1 | 743 s
9 | CCn1cc(-c2ccc(Cl)cc2)cc1C(=O)NCCOC | 954 s
10 | CCN(CC)CCNC(=O)CC1Sc2ccccc2NC1=O (centres undefined) | 591 s
11 | Cn1c(=O)c(N2CCCC(C(=O)NCCCN3CCCCCC3)C2)nc2cccnc21 (centres undefined) | 581 s
12 | CSc1ccc(CNC(=O)Cn2c(=O)cc(-c3nc(C)no3)c3ccccc32)cc1 | 859 s
13 | Cc1ccccc1CN1C(=O)N(c2ccc(F)cc2)c2ncccc2S1(=O)=O | 1100 s
14 | CC(C)c1nc(N(C)Cc2ccccc2)ncc1C(=O)O | 1030 s
15 | Cc1ccc(NC(=O)Cn2nc(-n3cccc3)c3c(C)cc(C)nc32)c(C)c1 | 1080 s
16 | c1ccc(-c2nc3nccc(-c4ccccc4)n3n2)cc1 | 907 s
17 | O=C(NCCN1CCN(C(=O)c2ccc(Br)cc2)CC1)C(=O)NCc1ccco1 | 626 s
18 | O=S(=O)(Cc1ccccc1)N1CCC(c2noc(COCc3ccccc3)n2)CC1 | 1060 s
19 | CCN1CCCC1CNC(=O)CCC(=O)N1CCCn2nc(-c3cn(C)c4ccccc34)cc21 (centres undefined) | 620 s
20 | CC(C)[C@H]1C(=O)O[C@@H]2CCN3CC=C(COC(=O)[C@](C)(O)[C@]1(C)O)[C@H]23 | 584 s
21 | Cc1cccc(NC(=O)Cn2nc3c(Oc4cccc(Cl)c4)nccn3c2=O)c1 | 899 s
22 | CCNc1nc(C)cc(N2CCN(C(=O)Nc3cc(C)ccc3C)CC2)n1 | 668 s
23 | COc1ccc(C(CNC(=O)c2cc(=O)c3ccccc3o2)N(C)C)cc1 (centres undefined) | 607 s

Row | Compound | RP-LC retention time
24 | CCc1ccc(-c2cc3c(=O)n(Cc4noc(CN5CCN(C)CC5)n4)ccn3n2)cc1 | 647 s
25 | CCOc1ccccc1C(=O)Nc1cccn2c(C3CCC3)nnc12 | 953 s
26 | CCCCOc1ccc(CNC(=O)CN2CC=C(c3cnn(-c4ccccc4)c3)CC2)cc1 | 826 s
27 | COc1ccccc1CN1CN=C(Nc2nc(C)c3ccc(C)cc3n2)NC1 | 568 s
28 | COc1cc(NC(=O)CC2=C3CCCCC3NC2=O)cc(OC)c1 (centres undefined) | 706 s
29 | COCc1nnc(C(=O)Nc2ccc(C(=O)NCCc3c[nH]c4ccc(C)cc34)cc2)s1 | 844 s
30 | Cc1ccc(CN2CCn3c(nn(C)c3=O)C2)cc1C | 662 s
31 | COc1ccc(C)cc1NC(=O)Cn1nc2cc(C)nc(Nc3ccc(F)cc3)n2c1=O | 1100 s
32 | CCn1cc(CCNC(=O)Nc2cccc(C(C)=O)c2)c2cccnc21 | 665 s
33 | O=C(Nc1cnn(-c2ncc(N3CCCCC3)cn2)c1)c1ccccn1 | 814 s
34 | O=C(NC1CCCCC1)N1CCC(CCc2nc(C3CCOCC3)no2)CC1 | 709 s
35 | CCc1nc2ccccc2c(=O)n1Cc1noc(-c2ccc(OC)c(OC)c2)n1 | 894 s
36 | CC(C)(C)C(=O)Nc1ccc2nc(N3CCN(c4ccccc4Cl)CC3)cc(C(=O)O)c2c1 | 750 s
37 | CCC(=O)N1c2ccc(S(=O)(=O)CCC(=O)N3CCN(c4ccc(OC)cc4)CC3)cc2CC1C (centres undefined) | 785 s
38 | CC1=C(c2ccc(C)cc2)S(=O)(=O)N=C1N1CCCN(C(=O)c2ccccn2)CC1 | 758 s
39 | O=C1CCCc2cc(S(=O)(=O)NCCCN3CCN(Cc4ccccc4)CC3)ccc2N1 | 581 s
40 | CCOc1ccc(N2CC(c3nc(-c4cccc(OC)c4OC)no3)CC2=O)cc1 (centres undefined) | 922 s
41 | Cc1cc(C)cc(C(=O)Nc2cc(-c3cccnc3)no2)c1 | 838 s
42 | O=C(Nc1ccc2ncnc(N3CCCCC3)c2c1)c1cccs1 | 670 s
43 | O=C(Nc1ccccc1C(F)(F)F)C1CCCN(C(=O)Cc2cccc3ccccc23)C1 (centres undefined) | 998 s
44 | COC(=O)c1ccc2c(=O)n(-c3cc(F)cc(F)c3)c(N3CCOCC3)nc2c1 | 945 s
45 | CCc1nnc2ccc(NC3CC3)nn12 | 657 s
46 | Cc1cccc2nc(-c3ccccc3)c(Nc3ccc4c(c3)OCCO4)n12 | 679 s

Row | Compound | RP-LC retention time
47 | COc1cc(Nc2nc(-c3nnn(-c4cc(Cl)ccc4OC)c3C)ns2)cc(OC)c1 | 1070 s
48 | CCC1(c2ccccc2)NC(=O)N(C)C1=O (centres undefined) | 794 s
49 | Cc1oc(C2CCN(C(=O)Nc3cc(F)cc(F)c3)CC2)nc1C(=O)N1CCCC1 | 917 s
50 | CC1(C(=O)NCc2ccccc2)CN(S(=O)(=O)c2ccccc2)CC(=O)N1CCC1=CCCCC1 (centres undefined) | 1090 s
51 | CCCCCn1c(=O)c2ccccc2n(Cc2nc(-c3cccc(Cl)c3)no2)c1=O | 1100 s
52 | CN(C)S(=O)(=O)c1ccc2c(c1)N(CC(=O)NCCN1CCCC1)C(=O)C1CCCCN21 (centres undefined) | 627 s
53 | CCCn1cc2c3c(cccc31)CN(C(=O)Nc1cc(OC)c(OC)c(OC)c1)CC2 | 970 s
54 | COc1ccc(-c2nc(C)c3c(n2)N(C(C)C)C(=O)C3)cc1 | 929 s
55 | CCOc1cc(C(=O)NCC(=O)Nc2nc3ccccc3[nH]2)cc(OCC)c1OCC | 715 s
56 | O=C(Nc1nccs1)C1CCN(c2nc(-c3ccc(Cl)cc3)no2)CC1 | 976 s
57 | CCC(=O)N(C)CCc1noc(-c2ccc(C(=O)NCCC(C)C)cc2)n1 | 806 s
58 | CCN1CCCCc2cc(C(=O)N(C)CCN(C)C)sc21 | 638 s
59 | COc1ccc(-c2c(C)noc2NC(C)=O)cc1S(=O)(=O)Nc1cccc(C(F)(F)F)c1 | 821 s
60 | O=C(Cn1cnc2ccccc21)N1CCC(COCc2ccccc2)CC1 | 608 s
61 | CCCCN1N=C(C(=O)N2CCCCCC2)S(=O)(=O)c2ccccc21 | 1030 s
62 | COc1ccc(-c2csc(Cc3nc(-c4ccc(C)cc4)no3)n2)cc1 | 1240 s
63 | CCOC(=O)c1noc2nc(C)nc(NCc3ccc(F)cc3)c12 | 1030 s
64 | Cc1ccoc1C(=O)N1C[C@@H](CO)[C@H](c2nc(C3CC3)no2)C1 | 688 s
65 | O=C(Nc1nnc(C2CC(=O)N(c3ccc(Cl)cc3)C2)o1)c1cccc(F)c1 (centres undefined) | 786 s
66 | CCCN1CCN(C(=O)C2CCCN(S(=O)(=O)c3cc(-c4noc(CC)n4)cs3)C2)CC1 (centres undefined) | 665 s
67 | O=C1NCCCCCN(C(=O)CN2CCCCCC2)[C@H]2CCC[C@@H]12 | 567 s
68 | CC(=O)N1c2ccc(S(=O)(=O)N3CCCCC3)cc2CC1C(=O)Nc1c(C)cc(C)cc1C (centres undefined) | 955 s
69 | CC1OC(Oc2c(-c3cc(O)c(O)c(O)c3)oc3cc(O)cc(O)c3c2=O)C(O)C(O)C1O (centres undefined) | 651 s

Row | Compound | RP-LC retention time
70 | Cc1ccc(CN2CC(CO)C3(CCNCC3)C2)cc1C (centres undefined) | 551 s
71 | O=C(Nc1ccc(F)cc1)C(=O)c1ccc[nH]1 | 821 s
72 | O=C(O)C1CCN(c2ncnc3nc[nH]c23)CC1 | 548 s
73 | CCc1nnc(-c2cn(CC(=O)NC3CCCCCC3)c3ccccc23)o1 | 790 s
74 | COC(=O)c1ccc2c(=O)n(-c3cccc(Cl)c3)c(N3CCSCC3)nc2c1 | 1090 s
75 | CS(=O)(=O)N1CCC(C(=O)Nc2nnc(SCc3ccccn3)s2)CC1 | 554 s
76 | CCc1c(C2CCN(C(=O)c3ccnn3C)CC2)noc1N | 596 s
77 | Cc1ccc2nc(C(=O)N3CCN(c4cccc(C)c4C)CC3)cn2c1 | 804 s
78 | Cc1ccc(CNC(=O)C2Cn3cccc3C(=O)N2CC(C)C)o1 (centres undefined) | 746 s
79 | Cn1c(=O)c(=O)n(C)c2cc(N3CCCC3)c(NC(=O)Cc3ccccc3Cl)cc21 | 793 s
80 | O=C(NCc1cccc(Br)c1)C1CCN(c2cnc3nccnc3c2)CC1 | 726 s
81 | O=C(NC1CC1)[C@@H]1C[C@H](Oc2cccnc2)CN1C(=O)c1cnccn1 | 526 s
82 | COc1ccc2c(c1)C1(CCN(S(=O)(=O)c3ccc(Br)cc3)C1)C(=O)N2 (centres undefined) | 881 s
83 | COc1ccc(CNC(=O)C2CCN(c3ccc(SCc4ccccc4)nn3)CC2)c(OC)c1 | 767 s
84 | CCS(=O)(=O)N1CC(=O)N(c2cc(C)cc(C)c2)C(C)(C(=O)NCc2ccccc2)C1 (centres undefined) | 868 s
85 | O=C(NCCn1c(-c2ccncc2)nc2cccnc21)Nc1ccccc1Cl | 624 s
86 | CSc1ccc(-c2nc3ncccn3c2Nc2ccc(C)c(C)c2)cc1 | 889 s
87 | CN(C)S(=O)(=O)c1ccc(-c2nnc(C(=O)N3CCCC3)o2)cc1 | 727 s
88 | COc1ccc(/C=C\c2onc(C)c2NC(C)=O)cc1S(=O)(=O)N1CCN(c2ncccn2)CC1 | 738 s
89 | CC1=NS(=O)(=O)N(C)C=C1C(=O)OCc1c(F)cccc1Cl | 968 s
